Legend:
[1] = tested on: hNIS mRNA; test: hNIS mRNA RT-PCR after polyamine synthesis inhibition; type: cell-based, human; settings: NPA'87 and KAK-1; DFMO 1 or 3 mM, AdoDATO 10 or 30 μM, 6 days; higher doses greater effect
From the text: (§1) hNIS transcriptional failure in thyroid carcinoma could be consequent to methylation of DNA in critical regulatory regions and could be reversed by inhibition of DNA-methyltransferase. Restoration of hNIS gene expression and activity from direct DNA-methyltransferase inhibition by 5-azacytidine has been shown. […] Since dcSAM is consumed by synthesis of polyamines (putrescine, spermidine, spermine) and its synthetic enzyme (adenosylmethionine decarboxylase) is stimulated by polyamine depletion, blockade of polyamine synthesis precipitously increases dcSAM levels. This should block DNA-methyltransferase activity and restore lost hNIS expression in dedifferentiated thyroid carcinomas. To assess this, human thyroid cell lines (NPA'87, papillary carcinoma, & KAK-1, follicular adenoma) without basal expression of hNIS or thyroglobulin (TG) mRNAs, were grown as monolayers in phenol red-free RPMI 1640 with 10% fetal bovine serum. […] Parallel cultures were assessed for Na[^125I] uptake (RAIU) in serum-free buffer, subtracting ^125I counts in buffer with choline (100 mM) to correct for non-specific counts and results normalized for cell density in each condition using thiazolyl blue (MTT) assays. […]

[2] = tested on: NPA'87 cells; test: Na[125I] uptake (RAIU) after polyamine synthesis inhibition, NPA'87; type: cell-based, human; settings: DFMO at 3 mM
From the text: as §1

[3] = tested on: thyroid peroxidase (TPO) mRNA; test: Thyroid peroxidase (TPO) mRNA RT-PCR after polyamine synthesis inhibition; type: cell-based, human; settings: NPA'87 and KAK-1; minimal basal expression; every dosage
From the text: as §1

[4] = tested on: thyroglobulin (TG) mRNA; test: Thyroglobulin (TG) mRNA RT-PCR after polyamine synthesis inhibition; type: cell-based, human; settings: NPA'87 and KAK-1; DFMO 1 or 3 mM, AdoDATO 10 or 30 μM, 6 days; higher doses greater effect
From the text: as §1

[5] = tested on: KAK-1 cells; test: Na[125I] uptake (RAIU) after polyamine synthesis inhibition, KAK-1; type: cell-based, human; settings: 30 μM AdoDATO
From the text: as §1

[6] = tested on: human thyroid cancer cell lines; settings: several human thyroid cancer cell lines in vitro; cited from earlier work
[7] = tested on: UCLA RO 82 W-1 (WRO82) cells; settings: UCLA RO 82 W-1 (WRO82) follicular carcinoma cell line; cited from earlier work
[8] = tested on: dedifferentiated follicular and papillary thyroid cancers; settings: of 14 patients not concentrating any radioiodine in metastatic tumors at baseline; cited from earlier work

Row | Compound | hNIS mRNA expression [1] | TPO expression [3] | TG mRNA expression [4] | other results
1 | NCCCC(N)(C(=O)O)C(F)F (stereo not drawn) [DFMO, difluoromethylomithine] | restored | enhancing expression at every dosage | restored | increase in RAIU [2]: > 6 fold
2 | NCCCCC[S+](CCN)CC1OC(n2cnc3c(N)ncnc32)C(O)C1O (stereo not drawn) [AdoDATO, S-adenosyl-1,8-diamino-3-thio-octane] | restored | enhancing expression at every dosage | restored | increase in RAIU [5]: ~5 fold
3 | gamma interferon: cytokine suggested in the literature to minimally enhance iodide uptake in thyroid cancer cell lines |  |  |  | enhancement of iodide uptake [6]: minimal enhancement
4 | CC1=C(/C=C/C(C)=C/C=C/C(C)=C\C(=O)O)C(C)(C)CCC1 [13cis-retinoic acid] |  |  |  | iodide uptake activity [7]: nominal increase; additional patients gaining "weak" uptake [8]: three; patients re-establishing distinct iodide uptake after treatment [8]: one

Source: US7029879B1, “Iodine uptake restoration in thyroid cancer” (University of Kentucky Research Foundation, priority 1999, dated 2006)
